Data: ChEMBL document CHEMBL1811761, “Recent advances in drug discovery of benzothiadiazine and related analogs as HCV NS5B polymerase inhibitors” (Bioorg Med Chem, 2011)

How the values were obtained:
Hepatitis C virus = assay: Antiviral activity against HCV 1b N infected in human HuH7 cells assessed as inhibition of viral RNA replication after 3 days by RT-PCR analysis; format: functional, organism-based, Hepacivirus hominis; details: genotype 1b strain N, Huh-7, 72 h
Huh-7 = assay: Cytotoxicity against human HuH7 cells up to […]; format: cell-based

Row | EC50 (Hepatitis C virus) [nM] | Compound | Activity (Huh-7)
1 | 100 | O=c1c(C2=NS(=O)(=O)c3ccccc3N2)c(O)c2ccccc2n1NC1CC1 | 
2 | 70 | NC(=O)COc1ccc2c(c1)S(=O)(=O)N=C(c1c(O)c3ccccc3n(NC3CCC3)c1=O)N2 | Non-toxic
3 | 100 | O=c1c(C2=NS(=O)(=O)c3ccccc3N2)c(O)c2ccccc2n1NC1CCC1 | 
